Test results from patent publication US20050267133A1, “Pyrazolopyrimidines as kinase inhibitors” (priority 2002, published 2005).
Where a name gives a salt, the structure may show the parent alone.

Target: GSK-3β (Homo sapiens, UniProt P49841)
Assay: GSK3 scintillation proximity assay (SPA) kinase assay
Assay type: biochemical
Conditions: 20 nM kinase, 2.5 uM ATP, biotinylated glycogen synthase peptide, 40 minutes at room temperature; -log IC50 in Molar; read-out: GSK-3 pIC50 (converted)
Text: The phosphorylated biotinylated peptide is then captured onto streptavidin coated scintillation proximity assay (SPA) beads from Amersham Technology, where the signal from the ^33P is amplified via the scintillant contained in the beads.
GSK-3β is commercially available or may be cloned and expressed in E. coli using standard techniques to produce soluble, active protein. The production of active protein involves purification in two steps using Metal Chelate and Ion Exchange Chromatography. Protein eluting from Ion Exchange provides >90% pure product that may then be concentrated for use in high throughput screening.
The kinase was assayed at a concentration of 20 nM final in 100 mM HEPES, pH 7.2 containing 10 mM magnesium chloride, 0.1 mg/mL bovine serum albumin, 1 mM dithiothreitol, 0.3 mg/mL heparin, 2.8 uM peptide substrate, 2.5 uM ATP, and 0.2 uCi/well [[…]-^33P]-ATP. After 40 minutes incubation at room temperature, the reaction was stopped by addition of 100 mM EDTA and […] in 100 mM HEPES, pH7.2 followed by an additional solution of diluted Streptavidin coated SPA beads in PBS, pH 7.2 to give a final concentration of 0.25 mg of beads per assay well in a 96-well microtiter plate.
10 mM stock solutions of the compounds of the invention in 100% DMSO are generated as a first step in the screening process. The second step involves the creation of dose response plates where these compounds are diluted 10-fold in 100% DMSO to 1 mM concentrations and subsequently serially diluted 3-fold in 100% DMSO across the plate by automated liquid handling such that the final top concentration of inhibitor is 0.033 mM in the 30 uL kinase assay. The third step involves the creation of the assay plates. This is achieved by transferring 1 uL of the compounds to assay plates by automated liquid handling. The fourth step is to perform the assay as described and count the resulting plates in the Packard TopCount NXT microplate scintillation and luminescence counter.
The final step is data acquisition and analysis where IC50 values are generated for each compound by normalizing curve data to the equation 100*(U1−C2)/(C1−C2) (where U1 is the cpm value, C2 is the background, and C1 is the maximum number of counts), then fitting the normalized data to the equation y=Vmax*(1−(x/(K+x))). The IC50 values were converted to pIC50 values, i.e., −log IC50 in Molar concentration. The data is expressed below in Table 1.

Chain of GSK-3β (P49841 whole entry, species assumed): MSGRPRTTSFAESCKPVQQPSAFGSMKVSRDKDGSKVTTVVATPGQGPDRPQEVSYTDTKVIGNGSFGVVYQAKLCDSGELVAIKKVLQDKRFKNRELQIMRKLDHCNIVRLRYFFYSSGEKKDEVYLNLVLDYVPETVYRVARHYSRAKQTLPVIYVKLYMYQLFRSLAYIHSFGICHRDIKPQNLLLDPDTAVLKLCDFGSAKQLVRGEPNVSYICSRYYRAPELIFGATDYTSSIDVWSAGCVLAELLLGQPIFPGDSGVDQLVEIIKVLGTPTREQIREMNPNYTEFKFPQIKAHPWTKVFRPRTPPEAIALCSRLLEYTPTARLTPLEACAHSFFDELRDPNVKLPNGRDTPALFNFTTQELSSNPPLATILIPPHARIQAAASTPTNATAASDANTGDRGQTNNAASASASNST

SMILES | IC50 [nM]
Clc1ccc(/C=N/Nc2ncnc3c2cnn3-c2ccccc2)cn1 [Example 16, 6-chloronicotinaldehyde (1-phenyl-1H-pyrazolo[3,4-d]pyrimidin-4-yl)hydrazone] | < 100
COc1cc(/C=N/Nc2ncnc3c2cnn3-c2ccccc2)cc(C(=O)O)c1O [Example 47, 3-Carboxy-4-Hydroxy-5-methoxybenzaldehyde (1-phenyl-1H-pyrazolo[3,4-d]pyrimidin-4-yl)hydrazone] | 100 to 1000
Nc1ccc(/C=N/Nc2ncnc3c2cnn3-c2ccccc2)cn1 [Example 12, 6-aminonicotinaldehyde (1-phenyl-1H-pyrazolo[3,4-d]pyrimidin-4-yl)hydrazone trifluoroacetate] | 100 to 1000
COc1cc(/C=N/Nc2ncnc3c2cnn3-c2ccccc2)ccn1 [Example 15, 2-methoxyisonicotinaldehyde (1-phenyl-1H-pyrazolo[3,4-d]pyrimidin-4-yl)hydrazone] | 100 to 1000
Cc1ccc(/C=N/Nc2ncnc3c2cnn3-c2ccccc2)o1 [Example 59, 5-Methyl-2-furaldehyde [1-(phenyl)-1H-pyrazolo[3,4-d]pyrimidin-4-yl]hydrazone] | 100 to 1000
O=S(=O)(NCCCN1CCCC1)c1ccc(/C=N/Nc2ncnc3c2cnn3-c2ccccc2)cc1 [Example 23, 4-{(E)-[(1-phenyl-1H-pyrazolo[3,4-d]pyrimidin-4-yl)hydrazono]methyl}-N-(3-pyrrolidin-1-ylpropyl)benzenesulfonamide] | < 100
C(=N\Nc1ncnc2c1cnn2-c1ccccc1)/c1ccnc2ccccc12 [Example 62, 4-Quinolinecarboxaldehyde [1-(phenyl)-1H-pyrazolo[3,4-d]pyrimidin-4-yl]hydrazone] | 1000 to 10000
CC(C)(C)OC(=O)N1CCC(/C=N/Nc2ncnc3c2cnn3-c2ccccc2)CC1 [Example 8, tert-butyl 4-{(E)-[(1-phenyl-1H-pyrazolo[3,4-d]pyrimidin-4-yl)hydrazono]methyl}piperidine-1-carboxylate] | 100 to 1000
COc1ccc(/C=N/Nc2ncnc3c2cnn3-c2ccccc2)cn1 [Example 17, 6-methoxynicotinaldehyde (1-phenyl-1H-pyrazolo[3,4-d]pyrimidin-4-yl)hydrazone] | 100 to 1000
C(=N\Nc1ncnc2c1cnn2-c1ccccc1)/C1CCNCC1 [Example 9, Piperidine-4-carbaldehyde (1-phenyl-1H-pyrazolo[3,4-d]pyrimidin-4-yl)hydrazone trifluoroacetate] | 100 to 1000
C(=N\Nc1ncnc2c1cnn2-c1ccccc1)/c1cnc2ccccc2c1 [Example 4, Quinoline-3-carbaldehyde (1-phenyl-1H-pyrazolo[3,4-d]pyrimidin-4-yl)hydrazone] | 100 to 1000
O=S(=O)(NCCN1CCOCC1)c1ccc(/C=N/Nc2ncnc3c2cnn3-c2ccccc2)cc1 [Example 21, N-(2-morpholin-4-ylethyl)-4-{(E)-[(1-phenyl-1H-pyrazolo[3,4-d]pyrimidin-4-yl)hydrazono]methyl}benzenesulfonamide] | < 100
CCc1ccc(/C=N/Nc2ncnc3c2cnn3-c2ccccc2)o1 [Example 57, 5-Ethyl-2-furaldehyde [1-(phenyl)-1H-pyrazolo[3,4-d]pyrimidin-4-yl]hydrazone] | 1000 to 10000

Continued, values first:

IC50 [nM] | SMILES
100 to 1000 | O=C(O)c1ccc(/C=N/Nc2ncnc3c2cnn3-c2ccccc2)cc1 [Example 24, 4-{(E)-[(1-phenyl-1H-pyrazolo[3,4-d]pyrimidin-4-yl)hydrazono]methyl}benzoic Acid]
< 100 | CN(C)CCNC(=O)c1cccc(/C=N/Nc2ncnc3c2cnn3-c2ccccc2)c1 [Example 40, N-[2-(dimethylamino)ethyl]-3-{(E)-[(1-phenyl-1H-pyrazolo[3,4-d]pyrimidin-4-yl)hydrazono]methyl}benzamide]
100 to 1000 | O=C(NCCN1CCOCC1)c1cccc(/C=N/Nc2ncnc3c2cnn3-c2ccccc2)c1 [Example 42, N-(2-morpholin-4-ylethyl)-3-{(E)-[(1-phenyl-1H-pyrazolo[3,4-d]pyrimidin-4-yl)hydrazono]methyl}benzamide]
< 100 | O=C(NCCN1CCCCC1)c1ccc(/C=N/Nc2ncnc3c2cnn3-c2ccccc2)cc1 [Example 33, 4-{(E)-[(1-phenyl-1H-pyrazolo[3,4-d]pyrimidin-4-yl)hydrazono]methyl}-N-(2-piperidin-1-ylethyl)benzamide]
100 to 1000 | NCCCNC(=O)c1ccc(/C=N/Nc2ncnc3c2cnn3-c2ccccc2)cc1 [Example 32, N-(3-aminopropyl)-4-{(E)-[(1-phenyl-1H-pyrazolo[3,4-d]pyrimidin-4-yl)hydrazono]methyl}benzamide]
100 to 1000 | CS(=O)(=O)CCNC(=O)c1cccc(/C=N/Nc2ncnc3c2cnn3-c2ccccc2)c1 [Example 41]
1000 to 10000 | CN(C)c1ccc(/C=N/Nc2ncnc3c2cnn3-c2ccccc2)cn1 [Example 13, 6-(dimethylamino)nicotinaldehyde (1-phenyl-1H-pyrazolo[3,4-d]pyrimidin-4-yl)hydrazone]
100 to 1000 | O=C(NCc1ccccn1)c1ccc(/C=N/Nc2ncnc3c2cnn3-c2ccccc2)cc1 [Example 28, 4-{(E)-[(1-phenyl-1H-pyrazolo[3,4-d]pyrimidin-4-yl)hydrazono]methyl}-N-(pyridin-2-ylmethyl)benzamide]
< 100 | CN(C)CCNS(=O)(=O)c1ccc(/C=N/Nc2ncnc3c2cnn3-c2ccccc2)cc1 [Example 22, N[2-(dimethylamino)ethyl]-4-[{(E)[(1-phenyl-1H-pyrazolo[3,4-d]pyrimidin-4-yl)hydrazono]methyl}benzenesulfonamide hydrochloride]
< 100 | CC(=O)Nc1ccc(/C=N/Nc2ncnc3c2cnn3-c2ccccc2)cn1 [Example 10, N-(5-{(E)-[2-(1-phenyl-1H-pyrazolo[3,4-d]pyrimidin-4-yl)hydrazono]methyl}pyridin-2-yl)acetamide]
100 to 1000 | CN(C)CCOc1ccc(/C=N/Nc2ncnc3c2cnn3-c2ccccc2)cn1 [Example 18, 6-[2-(dimethylamino)ethoxy]nicotinaldehyde (1-phenyl-1H-pyrazolo[3,4-d]pyrimidin-4-yl)hydrazone]
< 100 | CN(C)CCNc1ccc(/C=N/Nc2ncnc3c2cnn3-c2ccccc2)cn1 [Example 19, 6-{[2-(dimethylamino)ethyl]amino}nicotinaldehyde (1-phenyl-1H-pyrazolo[3,4-d]pyrimidin-4-yl)hydrazone hydrochloride]
100 to 1000 | Clc1cc(/C=N/Nc2ncnc3c2cnn3-c2ccccc2)ccn1 [Example 14, 2-chloroisonicotinaldehyde (1-phenyl-1H-pyrazolo[3,4-d]pyrimidin-4-yl)hydrazone]
100 to 1000 | COC(=O)c1cccc(/C=N/Nc2ncnc3c2cnn3-c2ccccc2)c1 [Example 3, Methyl 3-{(E)-[(1-phenyl-1H-pyrazolo[3,4-d]pyrimidin-4-yl)hydrazono]methyl}benzoate]

Target: T1, GST-TIE2 (intracellular domains of human TIE2) (Homo sapiens, UniProt Q02763)
T1 construct: made in house
T1 sequence (Q02763 762-1104): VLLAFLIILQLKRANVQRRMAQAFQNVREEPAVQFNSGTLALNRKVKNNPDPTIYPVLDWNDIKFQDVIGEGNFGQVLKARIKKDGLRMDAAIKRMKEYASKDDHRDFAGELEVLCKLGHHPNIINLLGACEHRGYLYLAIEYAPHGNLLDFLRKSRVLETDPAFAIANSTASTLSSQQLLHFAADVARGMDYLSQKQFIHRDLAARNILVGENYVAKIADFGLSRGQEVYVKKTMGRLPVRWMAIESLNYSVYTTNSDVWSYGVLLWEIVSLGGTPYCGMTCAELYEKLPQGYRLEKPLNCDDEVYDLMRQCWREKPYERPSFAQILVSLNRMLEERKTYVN
Assay: TIE-2 Enzyme Assay (TIE2-E), LANCE method
Assay type: biochemical
Conditions: preactivated GST-TIE2, 1 μM D1-15 peptide, 80 uM ATP, 30 mins at room temperature; pIC50 = -log IC50 in Molar
Text: The TIE-2 enzyme assay used the LANCE method (Wallac) and GST-TIE2, baculovirus expressed recombinant constructs of the intracellular domains of human TIE2 (amino acids 762-1104, GenBank Accession # L06139) tagged by GST). The method measured the ability of the purified enzymes to catalyse the transfer of the γ-phosphate from ATP onto tyrosine residues in a biotinylated synthetic peptide, D1-15 (biotin-C6-LEARLVAYEGWVAGKKKamide). This peptide phosphorylation was detected using the following procedure: for enzyme preactivation, GST-TIE2 was incubated for 30 mins at room temperature with 2 mM ATP, 5 mM MgCl2 and 12.5 mM DTT in 22.5 mM HEPES buffer (pH7.4). Preactivated GST-TIE2 was incubated for 30 mins at room temperature in 96 well plates with 1 μM D1-15 peptide, 80 uM ATP, 10 mM MgCl2, 0.1 mg/ml BSA and the test compound (diluted from a 10 mM stock in DMSO, final DMSO concentration was 2.4%) in 1 mM HEPES (pH7.4). The reaction was stopped by the addition of EDTA (final concentration 45 mM). Streptavidin linked-APC (allophycocyanin, Molecular Probe) and Europium-labeled anti-phosphorylated tyrosine antibody (Wallac) were then added at the final concentration of 17 μg/well and 2.1 μg/well, respectively. The APC signal was measured using an ARVO multilabel counter. (Wallac Berthold Japan). The percent inhibition of activity was calculated relative to blank control wells.
The concentration of test compound that inhibits 50% of activity (IC50) was interpolated using nonlinear regression (Levernberg-Marquardt) and the equation, y=Vmax (1−x/(K+x))+Y2, where “K” was equal to the IC50. The IC50 values were converted to pIC50 values, i.e., −log IC50 in Molar concentration.
Test compounds are employed in free or salt form.

IC50 [nM] | SMILES
100 to 1000 | O=C(O)c1ccc(/C=N/Nc2ncnc3c2cnn3-c2ccccc2)cc1 [Example 24, 4-{(E)-[(1-phenyl-1H-pyrazolo[3,4-d]pyrimidin-4-yl)hydrazono]methyl}benzoic Acid]
1000 to 10000 | COc1cc(/C=N/Nc2ncnc3c2cnn3-c2ccccc2)cc(C(=O)O)c1O [Example 47, 3-Carboxy-4-Hydroxy-5-methoxybenzaldehyde (1-phenyl-1H-pyrazolo[3,4-d]pyrimidin-4-yl)hydrazone]
100 to 1000 | O=C(NCCN1CCCCC1)c1ccc(/C=N/Nc2ncnc3c2cnn3-c2ccccc2)cc1 [Example 33, 4-{(E)-[(1-phenyl-1H-pyrazolo[3,4-d]pyrimidin-4-yl)hydrazono]methyl}-N-(2-piperidin-1-ylethyl)benzamide]
100 to 1000 | NCCCNC(=O)c1ccc(/C=N/Nc2ncnc3c2cnn3-c2ccccc2)cc1 [Example 32, N-(3-aminopropyl)-4-{(E)-[(1-phenyl-1H-pyrazolo[3,4-d]pyrimidin-4-yl)hydrazono]methyl}benzamide]
